Results published in patent US20140037606A1, “CELL-BASED, ANTI-CANCER VACCINES” (priority 2012, published 2014).

Columns and labels:
bone marrow-derived DCs [1] = assay: DC viability/lifespan by FACS of 7-AAD staining of CD11c+ cells; assay type: cell-based, mouse; conditions: treatment alone, no LPS; data not shown
Protocol: (§1) FIG. 1. Inhibition of mTOR expression prolongs DC lifespan and promotes expression of costimulatory molecules CD40 and CD86. (A) DCs were pulsed with Pam2CSK4, LPS, R848, or CpG for 6 hours and then washed and cultured in complete medium. Cell viability was monitored daily by FACS analysis of 7-AAD staining of CD11c^+ cells. (B) Western blot for mTOR and β-actin protein in Luciferase hpRNA (Luc^hp) or mTOR hpRNA (mTOR^hp)-transduced DCs. (C) DCs were stimulated with media alone, LPS, or rapamycin+LPS for 30 minutes. Cells were subsequently fixed and stained for phosphorylated S6 protein as a molecular readout for mTOR activation and analyzed by FACS. (D) Luc^hp and mTOR^hp-transduced DCs were left untreated or stimulated with LPS and monitored daily for cell viability by analysis of 7-AAD staining of CD11c^+ cells. (E) Luc^hp or mTOR^hp DCs were cultured with or without LPS for 24 hours and analyzed by FACS for CD40 and CD86 expression. […]
(§2) FIG. 2. […] Cells were monitored daily for cell viability as described for FIG. 1. […] (B) DCs were unstimulated or stimulated with LPS, RAP+LPS, or KU+LPS and analyzed by FACS 24 hours later for CD40 and CD86 expression. […] (C) DCs were treated as in (B) and analyzed daily by FACS for CD40 and CD86 expression gated on live CD11c^+ cells. […]

bone marrow-derived DCs [2] = assay: Costimulatory molecule expression on DCs by FACS; assay type: cell-based, mouse
Protocol: as §1, §2

[3] = test system: mTORC2-mediated Akt phosphorylation; assay: Activation-induced Akt Ser473 phosphorylation in DCs; assay type: cell-based, mouse
human myeloid DCs = assay: Costimulatory molecule expression in human myeloid DCs by FACS; assay type: cell-based; conditions: R848 1 μg/mL, inhibitors 100 nM
Protocol: FIG. 3. Pharmacological inhibition of mTOR augments the duration of costimulatory molecule expression in human myeloid DCs. (A) Human myeloid DCs were either unstimulated or stimulated with R848 in the presence or absence of rapamycin (RAP) or KU. CD40 and CD86 expression was analyzed by FACS. Day 4 costimulatory molecule expression from a representative donor (5430) is depicted. (B) DCs were treated as in (A) and analyzed daily by FACS for CD40 and CD86 expression. (C) DCs were treated as in (A) and analyzed for viability at indicated times by FACS analysis of 7-AAD staining. For each treatment, data from 4-6 individual donors is depicted.
Human DC Culture: Human myeloid DCs were isolated from human blood using MACS positive selection beads. In brief, filters from hospital blood donors were generously donated by the CVPH Medical Center in Plattsburgh, N.Y. Blood cells were obtained by reverse flushing filters in sterile HBSS. PBMCs were obtained by centrifugation of blood samples over Ficoll-Paque Plus (density 1.077 g/mL) (GE Healthcare). Myeloid DCs were enriched using the BDCA-1 Positive Selection DC Islation Kit (Miltenyi Bioscience) per the manufacturer's instructions. […] At indicated times, DCs were harvested and analyzed by FACS for maturation markers.

COc1ccc(-c2ccc3c(N4CCOCC4)nc(N4C[C@@H](C)O[C@@H](C)C4)nc3n2)cc1CO [KU, KU 0063794]
viability of unstimulated DCs (bone marrow-derived DCs [1]): did not impact | duration of expression of CD40 and CD86 in response to LPS (bone marrow-derived DCs [2]; analyzed daily, live CD11c+ cells): prolonged | percentage of DCs expressing CD40 and CD86 (bone marrow-derived DCs [2]; during LPS stimulation, 24 hours, inhibitors 100 nM): increase | activation induced Akt Ser473 phosphorylation [3]: inhibited | costimulatory molecule expression (CD40, CD86) in response to R848 (human myeloid DCs): enhanced
